Assay results: PMC5352776, “Neutron activation increases activity of ruthenium-based complexes and induces cell death in glioma cells independent of p53 tumor suppressor gene” (Biometals, 2017)

How the values were obtained:
[1] = system: MRC5 (Human Fetal Lung Fibroblast); test: MTT cytotoxic activity assay, MRC5 normal cells; format: cell-based; settings: 24 h exposure
Description: (§1) Malignant human Glioblastoma tumor cell lines U87 (p53 wild-type), T98 (p53 mutant) and normal cells MRC5 (Human Fetal Lung Fibroblast) were obtained from the American Type Culture Collection (ATCC, USA). The cells were maintained in Dulbecco’s Modified Eagle’s Medium (DMEM, Gibco), supplemented with 10% fetal bovine serum (FBS-Cultilab) and antibiotics (50 U/ml penicillin, […] streptomycin), at 37 °C in a humidified 5% CO2 atmosphere. For all experiments, cells were seeded at appropriate concentrations to ensure exponential growth.
(§2) The cytotoxicity of ruthenium(II) compounds was determined by measuring mitochondrial activity as a indicator of cell viability dependent on the reduction of MTT 3-(4,5-dimethylthiazol-2-yl)-2,5-diphenyl tetrazolium bromide to formazan (Mosmann [1983]). Cells (1.5 × 10^3/well) were seeded in 200 μl complete medium into 96-well microplates in triplicates. The plates were incubated at 37 °C in 5% CO2 for 24 h to allow cell adhesion, prior to drug testing. All radioactive or non-radioactive tested compounds were dissolved in sterile DMSO and diluted to reach final concentrations ranging from 1 × 10^−10 to 1 × 10^−4 mol l^−1. Cells were exposed to the compounds for a 24 h period and then, 0.5 mg ml^−1 of MTT solution was added to each well and further incubated for 4 h. The precipitated formazan crystals were dissolved in DMSO and the absorbance of produced color measured spectrophotometrically at 570 nm. The results were expressed as % viability of non-treated cell (control) versus drug concentration and the concentration that reduces cell viability by 50% (IC50) was calculated.

[2] = system: T98 (p53 mutant) glioblastoma cells; test: MTT cytotoxic activity assay, T98 cells; format: cell-based, human; settings: for IC50: 24 h exposure, MTT; for Selectivity index T98: SI = IC50 MRC5/IC50 tumor cell
Description: as §1, §2

[3] = system: U87 (p53 wild-type) glioblastoma cells; test: MTT cytotoxic activity assay, U87 cells; format: cell-based, human; settings: for IC50: 24 h exposure, MTT; for Selectivity index U87: SI = IC50 MRC5/IC50 tumor cell
Description: as §1, §2

[4] = radioactive (neutron activated) compounds
[5] = Radioactive (neutron activated form)
[6] = non-radioactive compounds, listed as [Ru(pic)(bipy)(dppf)]PF6
[7] = non-radioactive compounds, listed as [Ru(pic)(bipy)(dppp)]PF6

Compound | IC50 [1, 4] | IC50 [2, 4] | IC50 [3, 4] | IC50 ([1]; non-radioactive compounds) | Selectivity index T98 ([2]; Non-radioactive) | Selectivity index T98 [2, 5] | IC50 ([2]; non-radioactive compounds) | IC50 [2, 6] | Selectivity index U87 ([3]; Non-radioactive) | Selectivity index U87 [3, 5] | IC50 ([3]; non-radioactive compounds) | IC50 [3, 6] | IC50 [2, 7] | IC50 [3, 7]
[^103Ru(pic)(bipy)(dppp)]PF6 [[^103Ru(pic)(bipy)(dppp)]PF6 (4)] | 0.47 nM | 0.62 nM | 0.00031 µM |  |  |  |  |  |  |  |  |  |  | 
F[P-](F)(F)(F)(F)F.O=C([O-])c1ccccn1.[Fe+2].[Ru+2].c1ccc(-c2ccccn2)nc1.c1ccc(P(c2ccccc2)[c-]2cccc2)cc1.c1ccc(P(c2ccccc2)[c-]2cccc2)cc1 [[Ru(pic)(bipy)(dppf)]PF6 (3), [Ru(pic)(bipy)(dppf)]PF6] |  |  |  | 8900 ± 2300 nM | 2.91 | 0.70 | 3000 ± 700 nM | 3050 ± 720 nM | 2.23 | 0.90 | 4 ± 8.5 µM | 3.98 ± 0.85 µM |  | 
F[P-](F)(F)(F)(F)F.O=C([O-])c1ccccn1.[Ru+2].c1ccc(-c2ccccn2)nc1.c1ccc(P(CCCP(c2ccccc2)c2ccccc2)c2ccccc2)cc1 [[Ru(pic)(bipy)(dppp)]PF6 (4), [Ru(pic)(bipy)(dppp)]PF6] |  |  |  | 1470 ± 600 nM | 0.98 | 0.76 | 1500 ± 500 nM |  | 0.29 | 1.52 | 4.9 ± 2.5 µM |  | 1490 ± 500 nM | 4.92 ± 2.46 µM
[^103Ru(pic)(bipy)(dppb)]PF6 [[^103Ru(pic)(bipy)(dppb)]PF6 (1)] | 0.39 nM | 0.34 nM | 0.00024 µM |  |  |  |  |  |  |  |  |  |  | 
[^103Ru(pic)(bipy)(dppf)]PF6 [[^103Ru(pic)(bipy)(dppf)]PF6 (3)] | 0.38 nM | 0.54 nM | 0.00042 µM |  |  |  |  |  |  |  |  |  |  | 
F[P-](F)(F)(F)(F)F.O=C([O-])c1ccccn1.[Ru+2].c1ccc(-c2ccccn2)nc1.c1ccc(P(CCCCP(c2ccccc2)c2ccccc2)c2ccccc2)cc1 [[Ru(pic)(bipy)(dppb)]PF6 (1), [Ru(pic)(bipy)(dppb)]PF6] |  |  |  | 41000 ± 10100 nM | 3.45 | 1.14 | 11900 ± 5900 nM |  | 2.55 | 1.63 | 16.1 ± 3.3 µM |  |  | 
[^103Ru(pic)(bipy)(dppe)]PF6 [[^103Ru(pic)(bipy)(dppe)]PF6 (2)] | 0.2 nM | 0.52 nM | 0.00023 µM |  |  |  |  |  |  |  |  |  |  | 
F[P-](F)(F)(F)(F)F.O=C([O-])c1ccccn1.[Ru+2].c1ccc(-c2ccccn2)nc1.c1ccc(P(CCP(c2ccccc2)c2ccccc2)c2ccccc2)cc1 [[Ru(pic)(bipy)(dppe)]PF6 (2), [Ru(pic)(bipy)(dppe)]PF6] |  |  |  | 82100 ± 9100 nM | 4.32 | 0.39 | 19000 ± 5900 nM |  | 2.95 | 0.87 | 27.8 ± 11.7 µM |  |  | 
N.N.[Cl][Pt][Cl] [Cisplatin, reference compound] |  |  |  | 5050 ± 700 nM | 0.95 |  | 5300 ± 1900 nM |  | 2.87 |  | 1.8 ± 0.2 µM |  |  | 
